This note sets out measurements from patent publication US10106797B2, “Methods for suppressing adipocyte differentiation” (SEOUL NATIONAL UNIVERSITY R&DB FOUNDATION, priority 2013, dated 2018).

The subject of data set [1] is PPAR-v. As to the kind of experiment: Western blotting of PPAR-v protein expression in 3T3-L1 cells. The format is cell-based, mouse. The procedure: (§1) HEK293 (human embryonic kidney) cells were obtained from the American Type Culture Collection (Manassas, Va.). 3T3-L1 and 3T3-F442A preadipocytes were kindly given by Dr. Jae-Woo Kim (Yonsei University, Seoul, Korea). Cells were cultured in DMEM supplemented with 10% fetal bovine serum (FBS). Differentiation of 3T3-L1 cells was induced with 1 μM dexamethasone, 500 μM 3-isobutyl-a-methylxanthine, and 5 μg/ml of insulin (DMI), which is designated DMI. From 2 to 8 days after DMI treatment, cells were maintained in DMEM containing 10% FBS and 1 μg/ml of insulin and the medium was changed every other day. Adipocyte differentiation of hADSCs was induced with DMI and 200 μM indomethacin in α-MEM supplemented with 10% FBS. Cells were incubated in 5% CO2 and 20% O2 at 37° C.
(§2) Proteins in cell lysates were electrophoresed on SDS-polyacrylamide gels and transferred to Immobilon-P membranes (Millipore, Billerica, Mass.). Membranes were preincubated with 5% skim milk in TTBS (Tris-buffered saline containing 0.1% Tween 20) for 30 min and incubated overnight with primary antibody diluted 1:500 to 1:3000 in the TTBS. The membranes were further incubated with a horseradish peroxidase conjugated secondary antibody for 1 h and visualized using Pierce ECL Plus western blotting substrate according to the manufacturer's instruction (Thermo Fisher Scientific, Waltham, Mass.).
On the technique in general: A western blot detects proteins with antibodies after separation by electrophoresis.

The test system of data set [2] is C/EBP-β. As to the kind of experiment: Quantitative RT-PCR of C/EBP-β mRNA in 3T3-L1 cells. It counts as cell-based, mouse. The procedure:
as §1
(§3) Total RNAs were isolated from cultured cells using TRIzol® (Invitrogen). The EasyScript™ cDNA Synthesis Kit (Applied Biological Materials Inc., Richmond, Canada) was used to synthesize cDNAs. The level of each cDNA was relatively quantified by being divided by the 18S rRNA level in the corresponding sample.

In a further data set the test system is FABP4. Description: Quantitative RT-PCR of FABP4 mRNA in 3T3-L1 cells. The format is cell-based, mouse. On the procedure: as §1, §3
Data set [3] relates to PPAR-v. As to the kind of experiment: Quantitative RT-PCR of PPAR-v mRNA in 3T3-L1 cells. The format is cell-based, mouse. On the procedure: as §1, §3
The next data set deals with CD36. Description: Quantitative RT-PCR of CD36 mRNA in 3T3-L1 cells. It counts as cell-based, mouse. The procedure: as §1, §3
Another data set relates to 3T3-L1 cells. As to the kind of experiment: Adipocyte differentiation of 3T3-L1 cells, Oil-red O staining. It counts as cell-based, mouse. The settings on record: for adipose differentiation: amount dependent. The procedure:
as §1
Adipocytes were fixed with 3.7% of formalin and stained with 0.3% Oil-red-O solution (Sigma-Aldrich) dissolved in isopropanol. 0.5% Oil-red-O (Sigma-Aldrich) was dissolved in isopropanol. Oil-red-O stock solution and H2O were mixed at a ratio of 6:4 and filtered. Then 60% Oil-red-O stock solution was incubated with the cells for 1 h and washed with distilled water and scanned for image.

The subject of data set [4] is PPAR-v. Description: Ubiquitination of PPAR-v, western blotting. It counts as cell-based. To be noted: neddylation inhibited using siNEDD8; FIG. 3E. The procedure:
as §2
To precipitate HA-tagged proteins, transfected cells were lysed in a buffer containing 5 mM EDTA, 50 mM Tris-Cl, 100 mM NaCl, 0.1% NP-40, and the protease inhibitor cocktail (Sigma-Aldrich). Cell lysates (1 mg proteins) were incubated with EZview™ anti-HA affinity beads sequentially incubated with a primary antibody (10 μg/mL) and protein A/G-Sepharose beads (GE Healthcare, Uppsala, Sweden) at 4° C. for 4 h. Pull down proteins were eluted in a 2×SDS denaturing buffer and subjected to Western blotting as described above. For HA-bead immunoprecipitation, 1 mg of protein was incubated with 10 ul of HA-bead at 4° C. for 4 h and washed. Then proteins were eluted in a 2×SDS denaturing buffer and electrophoresed in a SDS-PAGE gel and subjected to Western blotting as described above.

Data set [5] relates to C/EBP-β. As to the kind of experiment: Western blotting of C/EBP-β protein expression in 3T3-L1 cells. To be noted: FIG. 1E. The format is cell-based, mouse. On the procedure: as §1, §2
Where [6] appears, read: 3T3-L1 cells treated with 0.5 μM MLN4924 before the differentiation, 0, 2, 4, 6, 8 days, FIG. 2B.
[7] abbreviates: knock down after the cells were induced to differentiation, FIG. 1D.
The mark [8] stands for this setting: siNEDD8 knock down, PCR at 0, 2, 4, 6, and 8 days after start of differentiation, FIG. 1F.

Consider `NS(=O)(=O)OC[C@@H]1C[C@@H](n2ccc3c(N[C@H]4CCc5ccccc54)ncnc32)C[C@@H]1O` [MLN4924, reference compound], for which the “expression of PPAR-v protein” value in the data set on PPAR-v [1] (3T3-L1 cells treated with MLN4924 after the differentiation was induced, FIG. 2A) is recorded as “suppresses”. Moreover, the “C/EBP-β at the mRNA level” value in the data set on C/EBP-β [2] (setting [6]) is reported as “decreased”. In the data set with FABP4 (setting [6]), the “FABP4 at the mRNA level” value is on record as “decreased”. Also, the “PPAR-v at the mRNA level” value with PPAR-v [3] (setting [6]) was “decreased”. Besides, in the data set with CD36 (setting [6]), the “CD36 at the mRNA level” value was “decreased”. Besides, the “differentiation of 3T3L1 cells into adipocytes” value with 3T3-L1 cells (MLN4924 0.1 and 0.5 μM, before and after differentiation was induced, Oil-red O, FIG. 2A) was “suppressed”.
As to `COc1ccc(C2=NC(c3ccc(Cl)cc3)C(c3ccc(Cl)cc3)N2C(=O)N2CCNC(=O)C2)c(OC(C)C)c1` (stereo not drawn) [nutlin-3, 4-[4,5-Bis(4-chlorophenyl)-2-(2-isopropoxy-4-methoxy-phenyl)-4,5-dihydro-imidazole-1-carbonyl]-piperazin-2-one, reference compound], the adipose differentiation entry with 3T3-L1 cells (nutlin-3 10 and 20 μM, before and after differentiation was induced, FIG. 5D) was “suppressed”.
On to “siMDM2: MDM2 siRNA used in 3T3-L1; probably the mouse one, SEQ ID NO: 8, 5′-GCAAUGAUCUACAGAAAUUUAGUGG-3′ (other strand not given here)”, for which the adipose differentiation result with 3T3-L1 cells (3T3-L1 transfected with siMDM2 10, 20 or 50 nM, differentiation induced after 2 days, FIG. 5C) was “suppressed”.
As to “siNEDD8: siRNA against NEDD8; Table 1 siNEDD8 is human, SEQ ID NO: 1; text does not say which sequence was used in 3T3-L1 (CAGACAAGGUGGAGCGAAUCAAGGA; other strand not given here)”, the “expression of PPAR-v” value in the data set with PPAR-v [1] (setting [7]) was “suppressed”; in the data set with PPAR-v [1] (knock down before induction, 0, 2, 4, 6 and 8 days during differentiation, compared to control, time dependent, FIG. 1E) it was “decreased”. For the same compound, the “mRNA expression level of C/EBP-β” value in the data set on C/EBP-β [2] (setting [8]) is given as “decreased”. In the data set on FABP4 (setting [8]), the “mRNA expression level of FABP4” value is recorded as “decreased”. Further, the “ubiquitination of PPAR-v” value with PPAR-v [4] was “increased”. The “expression of C/EBP-β” value in the data set with C/EBP-β [5] (0, 2, 4, 8, 16, 24 h after the initiation of differentiation) was “decreased”; in the data set on C/EBP-β [5] (knock down before induction, 0, 2, 4, 6 and 8 days during differentiation, compared to control, time dependent), “decreased”. For the same compound, the “mRNA expression level of PPAR-v” value with PPAR-v [3] (setting [8]) is on record as “decreased”. For the same compound, in the data set on CD36 (setting [8]), the “mRNA expression level of CD36” value is given as “decreased”. For the same compound, in the data set on 3T3-L1 cells (setting [7]), the adipogenesis result is “suppressed”.
